Calls of active or inactive are those of the source. The calls are words filed in the database; no cut-off is given here.

Consider 11 compounds from ChEMBL document CHEMBL2396627, “Novel artemisinin derivatives with potential usefulness against liver/colon cancer and viral hepatitis” (Bioorg Med Chem, 2013).

Data set [1] deals with SK-HEP1. Nature of the data set: Cytotoxicity against human SKHEP1 cells incubated for 1 hr prior to ferrosanol addition measured after 72 hrs. In kind it is functional, cell-based.
Data set [2] concerns SK-HEP1. Nature of the data set: Cytotoxicity against human SKHEP1 cells incubated for 1 hr prior to hemin addition measured after 72 hrs. The data set is classed as functional, cell-based.
In data set [3] the test system is SK-HEP1. Nature of the data set: Cytotoxicity against human SKHEP1 cells after 72 hrs in presence of hemin. The data set is classed as functional, cell-based.
For data set [4], the system named is SK-HEP1. Description: Cytotoxicity against human SKHEP1 cells after 72 hrs in presence of ferrosanol. The data set is classed as functional, cell-based.
Data set [5] is described as follows: Acute toxicity in human LS 174T cells at IC50 after 6 hrs by formazan test. In kind it is cell-based. To be noted: ls174t.
The subject of data set [6] is HepG2. Nature of the data set: Acute toxicity in human HepG2 cells at IC50 after 6 hrs by formazan test. In kind it is cell-based. To be noted: hepg2, 6 h.
For data set [7], the system named is SK-HEP1. Nature of the data set: Acute toxicity in human SKHEP1 cells at IC50 after 6 hrs by formazan test. The note with it: sk-hep1, 6 h. The data set is classed as cell-based.
The subject of data set [8] is SK-HEP1. Nature of the data set: Cytotoxicity against human SKHEP1 cells after 72 hrs by formazan test. In kind it is functional, cell-based. To be noted: for IC50: SK-HEP1, 72 h.
Data set [9] in a line: (§1) Cytotoxicity against human LS 174T cells after 72 hrs by formazan test. The data set is classed as functional, cell-based. The note with it: LS174T.
Another data set concerns LS174T. Described as §1. In kind it is functional, cell-based.
The subject of data set [10] is HepG2. Nature of the data set: Cytotoxicity against human HepG2 cells after 72 hrs by formazan test. The data set is classed as functional, cell-based. The note with it: for IC50: HepG2, 72 h.
A short description of data set [11]: Cytotoxicity against human HepG2(2.2.15) cells assessed as reduction in cell viability at 0.1 uM measured on day 21 by natural Red test. The data set is classed as cell-based. To be noted: hepg2 2.2.15, 0.1 µM.
For data set [12], the system named is Bovine viral diarrhea virus strain Oregon C24V. Nature of the data set: Antiviral activity against Bovine viral diarrhea virus Oregon C24V genotype 1 […] assessed as reduction in viral RNA release at 50 uM by RT-PCR analysis. In kind it is functional.
A short description of data set [13]: Acute toxicity in bovine EBTr cells infected with BVDV assessed as reduction in cell viability at 50 uM after 72 hrs. To be noted: cattle. The data set is classed as cell-based, Bos taurus.
Data set [14] in a line: Acute toxicity in bovine EBTr cells at 50 uM after 72 hrs. In kind it is cell-based, Bos taurus. To be noted: cattle.
Data set [15] concerns EBTr. Description: Antiviral activity against Bovine viral diarrhea virus Oregon C24V genotype 1 […] infected in bovine EBTr cells assesed as inhibition of virus-induced cytopathic effect at 20 to 100 uM after 72 hrs by MTT assay. In kind it is functional, cell-based. To be noted: Bovine viral diarrhea virus strain Oregon C24V.
The nature of data set [16]: Cytotoxicity against bovine EBTr cells up to 100 uM after 72 hrs by MTT assay. In kind it is cell-based, Bos taurus. The note with it: cattle.
In data set [17] the test system is EBTr. Description: Antiviral activity against Bovine viral diarrhea virus Oregon C24V genotype 1 […] infected in bovine EBTr cells assesed as inhibition of virus-induced cytopathic effect at 50 uM after 72 hrs by MTT assay. The data set is classed as functional, cell-based. The note with it: Bovine viral diarrhea virus strain Oregon C24V. In general terms: Protection from cytopathic effect is a common read-out in antiviral testing.

The subject of another data set is Hepatitis B virus. Nature of the data set: Antiviral activity against Hepatitis B virus infected in human HepG2(2.2.15) cells assessed as reduction in HBV-DNA release at < 0.1 uM measured on day 21. In kind it is functional. Also on record: scale not given: the % may be the effect or the level left.
Data set [18] in a line: Cytotoxicity against human HepG2(2.2.15) cells assessed as reduction in cell viability at 0.1 to 1 uM measured on day 21 by natural Red test. The data set is classed as cell-based. The note with it: hepg2 2.2.15, 1 µM.
Data set [19] concerns EBTr. Nature of the data set: Antiviral activity against Bovine viral diarrhea virus Oregon C24V genotype 1 […] infected in bovine EBTr cells assessed as inhibition of virus-induced cytopathic effect at 50 uM incubated 1 hr prior to ferrosanol addition measured after 72 hrs. In kind it is functional, cell-based. To be noted: Bovine viral diarrhea virus strain Oregon C24V.

For data set [20], the system named is EBTr. Nature of the data set: Antiviral activity against Bovine viral diarrhea virus Oregon C24V genotype 1 […] infected in bovine EBTr cells assessed as inhibition of virus-induced cytopathic effect at 50 uM incubated 1 hr prior to hemin addition measured after 72 hrs. In kind it is functional, cell-based. To be noted: Bovine viral diarrhea virus strain Oregon C24V.

Data set [21] in a line: Cytotoxicity against bovine EBTr cells at 20 to 100 uM after 72 hrs by MTT assay. In kind it is cell-based, Bos taurus. The note with it: cattle. (Tetrazolium dyes change colour on reduction, which living cells bring about.)
A short description of data set [22]: Cytotoxicity against human HepG2(2.2.15) cells assessed as reduction in cell viability at 1 uM measured on day 21 by natural Red test. In kind it is cell-based. The note with it: hepg2 2.2.15, 1 µM.

Consider `C[C@H]1[C@H](OC(=O)CCC(=O)O)O[C@@H]2O[C@@]3(C)CC[C@H]4[C@H](C)CC[C@@H]1[C@@]24OO3` [ARTESUNATE], for which the result in the data set with SK-HEP1 [1], in the data set on SK-HEP1 [2], with SK-HEP1 [3] and in the data set with SK-HEP1 [4] was Active. The Activity result in data set [5] was “Toxic”; in the data set on HepG2 [6] it was “Toxic”; in the data set with SK-HEP1 [7] it was “Toxic”; in the data set with SK-HEP1 [8], “Dose-dependent effect”; in the data set with LS174T, “Dose-dependent effect”; in the data set on HepG2 [10] it was “Dose-dependent effect”. In addition, the IC50 (as a rule, the concentration that inhibits the measured activity by half) in the data set with SK-HEP1 [8] came out at 10 µM; in data set [9], 10 µM; with HepG2 [10], 20 µM.
Consider `C[C@H]1[C@@H](OC(=O)C(F)(F)C(F)(F)F)O[C@@H]2O[C@@]3(C)CC[C@H]4[C@H](C)CC[C@@H]1[C@@]24OO3`, for which the Activity entry in data set [11] was “Toxic”; in data set [13], “Non-toxic”; in [14] it was “Non-toxic”; in the data set on EBTr [15], “Dose-dependent effect”; in [16] it was “Non-toxic”. In addition, the outcome in [12] was inactive. For the same compound, the IC50 was 150 µM with SK-HEP1 [8], greater than 200 µM in [9] and 200 µM in the data set with HepG2 [10]. Moreover, the result in the data set with EBTr [17] was Active.
For `CC1=CO[C@@H]2O[C@]3(C)CC[C@H]4[C@H](C)CC[C@@H]1[C@@]24OO3` [ANHYDRODIHYDROARTEMISININ], the Activity in the data set on Hepatitis B virus is 50%; in [18] it was “Toxic”; in data set [13], “Non-toxic”; in data set [14], “Non-toxic”; in the data set with EBTr [15], “Dose-dependent effect”; in data set [16], “Non-toxic”. Further, the result (in the data set on EBTr [19]; in the data set on EBTr [20]; in [12]; in the data set with EBTr [17]) was Active. Also, the IC50 with SK-HEP1 [8] is 30 µM; in [9], greater than 200 µM; with HepG2 [10], 200 µM.
In the case of `CCC(C)O[C@H]1O[C@@H]2O[C@@]3(C)CC[C@H]4[C@H](C)CC[C@@H]([C@H]1C)[C@@]24OO3` (some centres not stated), the Activity is on record as 50% in the data set with Hepatitis B virus; “Toxic” in [18]; “Toxic” in [13]; “Non-toxic” in [14]; “Toxic” in data set [21]; “Non-toxic” in data set [5]. Further, the Activity result in the data set with HepG2 [6] and with SK-HEP1 [7] was “Non-toxic” each time. Further, the result (in data set [12]; in the data set on EBTr [15]) was Active. Further, the figures for the IC50 (in the data set on SK-HEP1 [8]; in data set [9]; with HepG2 [10]) were 10 µM, 70 µM and 50 µM, respectively. Moreover, in the data set on EBTr [17], the outcome was inactive.
As for `C[C@@H]1CC[C@H]2[C@@H](C)C(=O)O[C@@H]3O[C@@]4(C)CC[C@@H]1[C@]32OO4` [ARTEMISININ], the IC50 (with SK-HEP1 [8]; in data set [9]; in the data set on HepG2 [10]) was greater than 200 µM in each case.
Turning to `C[C@H]1[C@@H](OC(=O)C(C)(C)C)O[C@@H]2O[C@@]3(C)CC[C@H]4[C@H](C)CC[C@@H]1[C@@]24OO3`, the Activity result in data set [22] is on record as “Toxic”; in data set [13] it was “Toxic”; in data set [14] it was “Non-toxic”; in data set [21], “Toxic”; in [5], “Non-toxic”; in the data set on HepG2 [6] it was “Non-toxic”. Also, the Activity result with SK-HEP1 [7] is “Non-toxic”. Further, the outcome (in [12]; in the data set with EBTr [15]) was Active. The IC50 with SK-HEP1 [8] turned out to be 9 µM; in [9], 70 µM; with HepG2 [10], 40 µM. Moreover, in the data set on EBTr [17], the result was inactive.
For `CCCC(CCC)C(=O)O[C@H]1O[C@@H]2O[C@@]3(C)CC[C@H]4[C@H](C)CC[C@@H]([C@H]1C)[C@@]24OO3`, the Activity result is recorded as “Toxic” in data set [22]; “Toxic” in data set [13]; “Non-toxic” in data set [14]; “Toxic” in data set [21]; “Non-toxic” in data set [5]; “Non-toxic” in the data set with HepG2 [6]. The Activity entry in the data set with SK-HEP1 [7] is on record as “Non-toxic”. Moreover, the outcome (in data set [12]; in the data set on SK-HEP1 [1]; in the data set on SK-HEP1 [2]; in the data set on SK-HEP1 [3]; with SK-HEP1 [4]) was Active. In addition, the result with EBTr [15] and in the data set with EBTr [17] was inactive. For the same compound, the values for the IC50 (in the data set with SK-HEP1 [8]; in data set [9]; in the data set with HepG2 [10]) were 1 µM, 5 µM and 3 µM, respectively.
For the compound `C[C@H]1[C@@H](OC(=O)N(C)C)O[C@@H]2O[C@@]3(C)CC[C@H]4[C@H](C)CC[C@@H]1[C@@]24OO3`, the Activity result in data set [11] was “Toxic”; in data set [13] it was “Non-toxic”; in [14], “Non-toxic”; in the data set on EBTr [15], “Dose-dependent effect”; in data set [16] it was “Non-toxic”. Besides, in data set [12], the result was inactive. Also, the IC50 in the data set on SK-HEP1 [8] is 25 µM; in data set [9] it was 100 µM; in the data set with HepG2 [10], 70 µM. Moreover, the result with EBTr [17] was Active.
As to `CC(=O)O[C@H]1O[C@@H]2O[C@@]3(C)CC[C@H]4[C@H](C)CC[C@@H]([C@H]1C)[C@@]24OO3`, the Activity entry in data set [11] is “Toxic”; in [13] it was “Non-toxic”; in data set [14], “Non-toxic”; in the data set on EBTr [15], “Dose-dependent effect”; in [16], “Non-toxic”; in data set [5], “Non-toxic”. Moreover, the Activity entry with HepG2 [6] and with SK-HEP1 [7] was “Non-toxic” in each case. The result (in [12]; with EBTr [17]) was Active. The IC50 in the data set on SK-HEP1 [8] amounted to 4 µM; in [9] it was 70 µM; in the data set on HepG2 [10], 60 µM.
For the compound `C[C@H]1[C@@H](O)O[C@@H]2O[C@@]3(C)CC[C@H]4[C@H](C)CC[C@@H]1[C@@]24OO3` [ARTENIMOL], the Activity entry in [22] was “Toxic”; in [13], “Toxic”; in [14], “Non-toxic”; in data set [21], “Toxic”; in the data set on SK-HEP1 [8], “Dose-dependent effect”; in the data set on LS174T, “Dose-dependent effect”. Besides, in the data set with HepG2 [10], the Activity result was “Dose-dependent effect”. Moreover, the outcome (in data set [12]; with EBTr [15]; with EBTr [17]) was Active. Further, the IC50 in the data set on SK-HEP1 [8] was 30 µM; in data set [9] it was 120 µM; in the data set on HepG2 [10] it was 70 µM.
For `CCCC(=O)O[C@H]1O[C@@H]2O[C@@]3(C)CC[C@H]4[C@H](C)CC[C@@H]([C@H]1C)[C@@]24OO3`, the Activity result in [22] is “Toxic”; in data set [13], “Non-toxic”; in data set [14], “Non-toxic”; in data set [16] it was “Non-toxic”; in data set [5], “Non-toxic”; with HepG2 [6], “Non-toxic”. Moreover, the Activity entry with SK-HEP1 [7] is recorded as “Non-toxic”. For the same compound, in data set [12], the result was inactive. The outcome in the data set with EBTr [15] and with EBTr [17] was Active. Besides, the IC50 in the data set with SK-HEP1 [8] was found to be 2 µM; in data set [9], 130 µM; in the data set on HepG2 [10], 100 µM.
